US10485815B2, “Substituted nucleosides, nucleotides and analogs thereof” (Alios BioPharma, Inc., priority 2012, dated 2019)
Where two headings read alike, the source gives them in different places.

Legend:
RSV A2 (ATCC: VR-1540) = assay: RSV RT-PCR based assay in HEp-2 cells; format: cell-based; settings: human respiratory syncytial virus
RSV polymerase = RSV polymerase (Human respiratory syncytial virus A, UniProt P28887); assay: biochemical
hPIV3-eGFP = assay: microbe, parasite or virus in culture; format: cell-based, human parainfluenza virus 3; settings: Human respirovirus 3, A549, 72 h
[1] = system: human parainfluenza virus 3 (hPIV3, ATCC: VR-93); assay: Parainfluenza virus-3 (PIV-3) RT-PCR assay in A549 cells; format: cell-based; settings: Human respirovirus 3, 168 h, hPIV3 MOI 0.1, 7 days after infection
[2] = system: Influenza strain A/WSN/33 (H1N1); assay: microbe, parasite or virus in culture; format: cell-based; settings: A549, 20 h, read-out: % Inhibition
[3] = 96 h, RT-PCR assay, HEp-2 cells, RSV A2 MOI 0.1, 4 days after infection, read-out: EC50

Sequence of RSV polymerase (P28887 whole entry, looked up): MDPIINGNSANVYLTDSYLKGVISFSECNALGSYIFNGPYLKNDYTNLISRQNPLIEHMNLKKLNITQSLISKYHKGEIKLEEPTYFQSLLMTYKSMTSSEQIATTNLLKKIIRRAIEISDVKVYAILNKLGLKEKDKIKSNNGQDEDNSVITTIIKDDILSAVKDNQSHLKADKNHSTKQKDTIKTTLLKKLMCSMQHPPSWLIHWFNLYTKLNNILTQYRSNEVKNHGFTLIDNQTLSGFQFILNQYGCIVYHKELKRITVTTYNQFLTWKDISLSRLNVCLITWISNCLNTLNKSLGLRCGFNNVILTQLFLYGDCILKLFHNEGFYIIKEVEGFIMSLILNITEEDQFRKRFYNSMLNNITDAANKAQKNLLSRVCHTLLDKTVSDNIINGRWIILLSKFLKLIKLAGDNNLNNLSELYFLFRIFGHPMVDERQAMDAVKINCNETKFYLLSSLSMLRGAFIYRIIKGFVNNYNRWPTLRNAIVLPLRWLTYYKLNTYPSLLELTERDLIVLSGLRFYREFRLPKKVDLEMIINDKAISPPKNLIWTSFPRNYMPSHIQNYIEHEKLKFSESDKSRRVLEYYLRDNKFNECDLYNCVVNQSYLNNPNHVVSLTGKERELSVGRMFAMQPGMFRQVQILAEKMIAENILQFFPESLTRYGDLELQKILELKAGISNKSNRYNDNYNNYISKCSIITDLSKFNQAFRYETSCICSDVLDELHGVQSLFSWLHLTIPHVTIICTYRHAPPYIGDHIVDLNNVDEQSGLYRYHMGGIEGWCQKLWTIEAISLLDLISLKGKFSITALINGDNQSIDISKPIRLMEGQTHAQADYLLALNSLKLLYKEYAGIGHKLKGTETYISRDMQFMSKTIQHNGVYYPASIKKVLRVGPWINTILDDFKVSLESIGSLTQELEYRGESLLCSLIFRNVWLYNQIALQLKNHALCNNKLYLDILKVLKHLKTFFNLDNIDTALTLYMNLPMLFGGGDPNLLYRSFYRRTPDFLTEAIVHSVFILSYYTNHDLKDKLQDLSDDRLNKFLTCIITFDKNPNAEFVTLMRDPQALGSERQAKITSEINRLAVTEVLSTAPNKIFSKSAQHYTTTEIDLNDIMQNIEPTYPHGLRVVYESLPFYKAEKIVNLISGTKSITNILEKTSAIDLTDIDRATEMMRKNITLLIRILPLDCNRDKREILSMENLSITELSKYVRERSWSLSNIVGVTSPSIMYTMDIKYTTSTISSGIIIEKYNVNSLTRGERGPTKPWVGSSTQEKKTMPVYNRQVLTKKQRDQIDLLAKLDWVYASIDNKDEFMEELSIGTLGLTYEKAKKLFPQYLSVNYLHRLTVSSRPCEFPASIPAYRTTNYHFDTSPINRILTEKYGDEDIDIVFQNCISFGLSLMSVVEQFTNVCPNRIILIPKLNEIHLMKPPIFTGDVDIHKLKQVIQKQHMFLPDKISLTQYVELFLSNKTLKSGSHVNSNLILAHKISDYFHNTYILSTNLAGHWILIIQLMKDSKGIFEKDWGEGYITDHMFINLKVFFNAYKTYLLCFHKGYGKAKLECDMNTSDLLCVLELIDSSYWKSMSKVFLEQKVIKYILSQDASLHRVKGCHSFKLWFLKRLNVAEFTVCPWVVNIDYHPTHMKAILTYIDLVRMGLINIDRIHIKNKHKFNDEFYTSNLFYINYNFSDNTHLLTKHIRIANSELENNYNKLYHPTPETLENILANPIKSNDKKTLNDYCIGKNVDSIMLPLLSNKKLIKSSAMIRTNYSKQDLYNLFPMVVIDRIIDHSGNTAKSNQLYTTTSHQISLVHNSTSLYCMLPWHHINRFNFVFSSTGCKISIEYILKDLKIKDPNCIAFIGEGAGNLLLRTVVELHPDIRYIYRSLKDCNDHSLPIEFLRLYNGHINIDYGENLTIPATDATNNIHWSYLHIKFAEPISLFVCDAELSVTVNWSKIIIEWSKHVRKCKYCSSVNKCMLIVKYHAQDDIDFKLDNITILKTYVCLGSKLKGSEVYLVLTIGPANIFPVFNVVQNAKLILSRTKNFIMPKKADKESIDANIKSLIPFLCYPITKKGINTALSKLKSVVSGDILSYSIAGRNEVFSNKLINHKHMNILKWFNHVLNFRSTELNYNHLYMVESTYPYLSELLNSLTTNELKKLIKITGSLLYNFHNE

Row | Structure (SMILES) | EC50 (RSV A2 (ATCC: VR-1540); [3]) [µM] | EC50 [2] [µM] | also measured
1 | C[C@]1(CO)O[C@@H](n2cnc3c(=O)[nH]c(N)nc32)[C@H](F)[C@@H]1O [Compound 82a] | < 1 |  | 
2 | Nc1nc(=O)n([C@@H]2O[C@](CCl)(COP(=O)(O)OP(=O)(O)OP(=O)(O)O)[C@H](O)[C@@H]2F)cc1F [Compound 97g] |  |  | EC50 (RSV polymerase): < 2 µM
3 | COC[C@]1(CO)O[C@@H](n2ccc(N)nc2=O)[C@H](F)[C@@H]1O [Compound 43a] |  |  | EC50 (hPIV3-eGFP): > 100 µM; EC50 [1]: > 100 µM
4 | CC[C@]1(COC(=O)C(C)C)O[C@@H](n2ccc(N)nc2=O)[C@H](F)[C@@H]1OC(=O)C(C)C [Compound 108a] | 1 to 10 |  | 
5 | C#C[C@]1(COP(=O)(N[C@@H](C)C(=O)OC(C)C)Oc2ccccc2)O[C@@H](n2ccc(=O)[nH]c2=O)[C@H](F)[C@@H]1O (stereo partly drawn) [Compound 18a] |  | 100 to 250 | 
6 | CC(C)OC(=O)OCOP(=O)(OCOC(=O)OC(C)C)OC[C@@]1(C2CC2)O[C@@H](n2ccc(N)nc2=O)[C@H](F)[C@@H]1O [Compound 105a] | 10 to 100 |  | 
7 | CC[C@]1(COP(=O)(OCOC(=O)C(C)(C)C)OCOC(=O)C(C)(C)C)O[C@@H](n2ccc(N)nc2=O)[C@H](F)[C@@H]1O [Compound 31a] | 1 to 10 | 100 to 250 | 
8 | Nc1ccn([C@@H]2O[C@](CF)(COP(=O)(O)OP(=O)(O)OP(=O)(O)O)[C@@H](O)[C@H]2F)c(=O)n1 [Compound 56c] |  |  | EC50 (RSV polymerase): < 2 µM
9 | CSC[C@]1(COP(=O)(O)OP(=O)(O)OP(=O)(O)O)O[C@@H](n2ccc(N)nc2=O)[C@@H](F)[C@H]1O [Compound 97b] |  |  | EC50 (RSV polymerase): < 2 µM
10 | Nc1ccn([C@@H]2O[C@@]3(CO)CO[C@H]3[C@H]2F)c(=O)n1 [Compound 12a] |  | 100 to 250 | 
11 | C=C[C@]1(COP(=O)(N[C@@H](C)C(=O)OC(C)C)Oc2ccccc2)O[C@@H](n2ccc(N)nc2=O)[C@H](F)[C@@H]1O (stereo partly drawn) [Compound 16a] |  | 100 to 250 | 
12 | CCC[C@]1(CO)O[C@@H](n2ccc(N)nc2=O)[C@H](F)[C@@H]1O [Compound 21a] | < 1 | 100 to 250 | 
13 | CC(F)[C@]1(COP(=O)(O)OP(=O)(O)OP(=O)(O)O)O[C@@H](n2ccc(N)nc2=O)[C@@H](F)[C@H]1O (stereo partly drawn) [Compound 36e] |  |  | EC50 (RSV polymerase): < 2 µM
14 | [N-]=[N+]=N[C@]1(CO)O[C@@H](n2ccc(N)nc2=O)[C@@H](O)[C@@H]1O [Compound 113a] |  |  | EC50 (hPIV3-eGFP): > 100 µM; EC50 [1]: > 100 µM
15 | C=C[C@]1(CO)O[C@@H](n2ccc(N)nc2=O)[C@H](F)[C@@H]1O [Compound 4a] | 10 to 100 | 100 to 250 | EC50 (hPIV3-eGFP): > 100 µM
16 | COC[C@]1(COP(=O)(OCOC(=O)OC(C)C)OCOC(=O)OC(C)C)O[C@@H](n2ccc(N)nc2=O)[C@H](F)[C@@H]1O [Compound 106a] | 10 to 100 |  | 
17 | CC[C@]1(COP2(=O)OCc3cccc(C)c3O2)O[C@@H](n2ccc(N)nc2=O)[C@H](F)[C@@H]1O (stereo partly drawn) [Compound 14a] |  |  | EC50 (RSV A2 (ATCC: VR-1540); HEp-2, 96 h): < 1 µM
18 | Nc1ncnc2c1ncn2[C@@H]1O[C@](CF)(COP(=O)(O)OP(=O)(O)OP(=O)(O)O)[C@@H](O)[C@H]1F [Compound 98c] |  |  | EC50 (RSV polymerase): < 2 µM
19 | Nc1nc(=O)n([C@@H]2O[C@@](CO)(CCl)[C@@H](O)[C@H]2F)cc1F [Compound 76a] | < 1 |  | 
20 | C#C[C@]1(CO)O[C@@H](n2cnc3c(=O)[nH]c(N)nc32)[C@H](F)[C@@H]1O [Compound 27a] | 1 to 10 | 20 to 100 | 
21 | C#C[C@]1(COP(=O)(O)OP(=O)(O)OP(=O)(O)O)O[C@@H](n2ccc(N)nc2=O)[C@H](F)[C@@H]1O [Compound 36c] |  |  | EC50 (RSV polymerase): < 2 µM
22 | C=C[C@]1(CO)O[C@@H](n2cnc3c(=O)[nH]c(N)nc32)[C@H](F)[C@@H]1O [Compound 25a, 2′-Deoxy-2′-fluoro-4′-C-(ethenyl)guanosine] | 10 to 100 | < 20 | 
23 | Nc1ccn([C@@H]2O[C@@](CO)(CBr)[C@@H](O)[C@H]2F)c(=O)n1 [Compound 71a] | < 1 |  | EC50 (hPIV3-eGFP): > 100 µM; EC50 [1]: > 100 µM
24 | C[C@]1(CO)O[C@@H](n2ccc(N)nc2=O)[C@H](F)[C@@H]1O [Compound 9a] | 10 to 100 | 100 to 250 | EC50 (hPIV3-eGFP): > 100 µM; EC50 [1]: > 100 µM
25 | Nc1ccn([C@@H]2O[C@](CBr)(COP(=O)(O)OP(=O)(O)OP(=O)(O)O)[C@H](O)[C@@H]2F)c(=O)n1 [Compound 97c] |  |  | EC50 (RSV polymerase): < 2 µM
26 | CC(C)(C)C(=O)OCOP(=O)(OCOC(=O)C(C)(C)C)OC[C@@]1(CCl)O[C@@H](n2ccc(=O)[nH]c2=O)[C@H](F)[C@@H]1O [Compound 45a] | 10 to 100 |  | 

Row | Structure (SMILES) | EC50 (RSV A2 (ATCC: VR-1540); [3]) [µM] | EC50 [2] [µM] | also measured
27 | Nc1ccn([C@@H]2O[C@@](CO)(C3CC3)[C@@H](O)[C@H]2F)c(=O)n1 [Compound 41a] | 1 to 10 |  | 
28 | CCCCC(=O)OC[C@@]1(CCl)O[C@@H](n2ccc(N)nc2=O)[C@H](F)[C@@H]1OC(=O)CCCC [Compound 48a] | 1 to 10 |  | 
29 | O=c1ccn([C@@H]2O[C@](CCl)(COP(=O)(O)OP(=O)(O)OP(=O)(O)O)[C@@H](O)[C@H]2F)c(=O)[nH]1 [Compound 56a] |  |  | EC50 (RSV polymerase): 2 to 10 µM
30 | Nc1nc2c(ncn2[C@@H]2O[C@@](CO)(CCl)[C@@H](O)[C@H]2F)c(=O)[nH]1 [Compound 81a] | 1 to 10 |  | 
31 | Nc1ccn([C@@H]2OC(CO)(CO)[C@@H](O)[C@H]2F)c(=O)n1 [Compound 6a] |  | 100 to 250 | EC50 (hPIV3-eGFP): > 100 µM; EC50 [1]: > 100 µM
32 | N#C[C@]1(CO)O[C@@H](n2cnc3c(=O)[nH]c(N)nc32)[C@H](F)[C@@H]1O [Compound 26a] | 1 to 10 | 100 to 250 | 
33 | CC(C)(C)C(=O)OCOP(=O)(OCOC(=O)C(C)(C)C)OC[C@@]1(CCl)O[C@@H](n2ccc(N)nc2=O)[C@H](F)[C@@H]1O [Compound 30a] | < 1 | 100 to 250 | 
34 | O=c1nc(NO)ccn1[C@@H]1O[C@@](CO)(CCl)[C@@H](O)[C@H]1F [Compound 73a] | 10 to 100 |  | 
35 | CSC[C@]1(CO)O[C@@H](n2ccc(N)nc2=O)[C@H](F)[C@@H]1O [Compound 69a] | < 1 |  | EC50 (hPIV3-eGFP): 20 to 100 µM; EC50 [1]: < 20 µM
36 | Nc1ncnc2c1ncn2[C@@H]1O[C@](CCl)(COP(=O)(O)OP(=O)(O)OP(=O)(O)O)[C@@H](O)[C@H]1F [Compound 98b] |  |  | EC50 (RSV polymerase): < 2 µM
37 | CC(C)CC[C@]1(COP(=O)(O)OP(=O)(O)OP(=O)(O)O)O[C@@H](n2ccc(N)nc2=O)[C@H](F)[C@@H]1O [Compound 36i] |  |  | EC50 (RSV polymerase): 2 to 10 µM
38 | CC[C@]1(COP(=O)(O)OP(=O)(O)OP(=O)(O)O)O[C@@H](n2ccc(N)nc2=O)[C@H](F)[C@@H]1O [Compound 36a] |  |  | EC50 (RSV polymerase): < 2 µM
39 | CC(C)C(=O)OC[C@@]1(CCl)O[C@@H](n2ccc(N)nc2=O)[C@H](F)[C@@H]1OC(=O)C(C)C [Compound 46a] | 1 to 10 |  | 
40 | CC[C@]1(COP(=O)(OCCSC(=O)C(C)(C)C)OCCSC(=O)C(C)(C)C)O[C@@H](n2ccc(N)nc2=O)[C@H](F)[C@@H]1O [Compound 33a] | < 1 |  | 
41 | C=C=C[C@]1(CO)O[C@@H](n2ccc(N)nc2=O)[C@H](F)[C@@H]1O [Compound 11a] | 1 to 10 |  | 
42 | Nc1ccn([C@@H]2O[C@@](CO)(CF)[C@@H](O)[C@H]2F)c(=O)n1 [Compound 23a] | < 1 | 100 to 250 | EC50 (hPIV3-eGFP): > 100 µM; EC50 [1]: > 100 µM
43 | C=C(C)[C@]1(COP(=O)(O)OP(=O)(O)OP(=O)(O)O)O[C@@H](n2ccc(N)nc2=O)[C@H](F)[C@@H]1O [Compound 36j] |  |  | EC50 (RSV polymerase): 2 to 10 µM
44 | C=C[C@]1(COP(=O)(N[C@@H](C)C(=O)OC(C)C)Oc2ccccc2)O[C@@H](n2ccc(=O)[nH]c2=O)[C@H](F)[C@@H]1O (stereo partly drawn) [Compound 17a] |  | 100 to 250 | 
45 | CO[C@]1(CO)O[C@@H](n2ccc(N)nc2=O)[C@H](F)[C@@H]1O [Compound 22a] | 10 to 100 | 100 to 250 | EC50 (hPIV3-eGFP): > 100 µM; EC50 [1]: > 100 µM
46 | Nc1ccn([C@@H]2O[C@@](COP(=O)(O)OP(=O)(O)OP(=O)(O)O)(C3CC3)[C@@H](O)[C@H]2F)c(=O)n1 [Compound 56d] |  |  | EC50 (RSV polymerase): < 2 µM
47 | CC[C@]1(CO)O[C@@H](n2cnc3c(=O)[nH]c(N)nc32)[C@H](F)[C@@H]1O [Compound 39a] | 1 to 10 | 20 to 100 | 
48 | C#C[C@]1(CO)O[C@@H](n2ccc(N)nc2=O)[C@H](F)[C@@H]1O [Compound 1a] |  | 100 to 250 | EC50 (RSV A2 (ATCC: VR-1540); HEp-2, 96 h): 10 to 100 µM
49 | COC[C@]1(COP(=O)(O)OP(=O)(O)OP(=O)(O)O)O[C@@H](n2ccc(N)nc2=O)[C@@H](F)[C@H]1O [Compound 97a] |  |  | EC50 (RSV polymerase): < 2 µM
50 | CO[C@]1(CO)O[C@@H](n2cnc3c(=O)[nH]c(N)nc32)[C@H](F)[C@@H]1O [Compound 28a] | 1 to 10 | 100 to 250 | 
51 | CC(F)[C@]1(COP(=O)(O)OP(=O)(O)OP(=O)(O)O)O[C@@H](n2ccc(N)nc2=O)[C@H](F)[C@@H]1O (stereo partly drawn) [Compound 56e] |  |  | EC50 (RSV polymerase): < 2 µM
52 | CC(F)[C@]1(CO)O[C@@H](n2ccc(N)nc2=O)[C@H](F)[C@@H]1O (stereo partly drawn) [Compound 40a] |  |  | EC50 (hPIV3-eGFP): > 100 µM; EC50 [1]: > 100 µM
